Measurements taken from article PMC6758606, “Novel 2-substituted-benzimidazole-6-sulfonamides as carbonic anhydrase inhibitors: synthesis, biological evaluation against isoforms I, II, IX and XII and molecular docking studies” (Journal of Enzyme Inhibition and Medicinal Chemistry, 2019).

Experiments:
Assay type in all cases: biochemical
[1] = biological target: T1, hCA IX (Homo sapiens, UniProt Q16790); test: stopped-flow CO2 hydrase assay, hCA IX; conditions: for Ki: recombinant enzyme, stopped-flow CO2 hydrase assay, mean from 3 different assays, errors ± 5–10%; for SR IX/II (Selectivity Ratio): selectivity for inhibiting hCA IX over hCA II (values equal Ki hCA II / Ki hCA IX)
T1 construct: made in house
Experimental: (§1) An Applied Photophysics stopped-flow instrument has been used for assaying the CA-catalysed CO2 hydration activity. Phenol red (at a concentration of 0.2 mM) has been used as indicator, working at the absorbance maximum of 557 nm, with 20 mM Hepes (pH 7.5) as buffer, and 20 mM Na2SO4 (for maintaining constant the ionic strength), following the initial rates of the CA-catalysed CO2 hydration reaction for a period of 10–100 s. CO2 concentrations ranged from 1.7 to 17 mM for the determining inhibition constants. […] Uncatalyzed rates were determined in the same manner and subtracted from the total observed rates. Stock solutions of inhibitor (0.1 mM) were prepared in buffer with a maximum 3% DMSO, and dilutions up to 0.01 nM were done with the assay buffer. Inhibitor and enzyme solutions were preincubated for 15 min at room temperature prior to assay, in order to allow for the formation of the E–I complex. The inhibition constants were obtained by nonlinear least-squares methods using PRISM 3 and the Cheng-Prusoff equation, as reported earlier, and represent the mean from at least three different determinations. All CA isoforms were recombinant ones obtained in-house as reported earlier.
(§2) AAZ 1 was used as the standard drug in the assay.

[2] = biological target: T2, hCA I (Homo sapiens, UniProt P00915); test: stopped-flow CO2 hydrase assay, hCA I; conditions: recombinant enzyme, mean from 3 different assays, errors ± 5–10%
T2 construct: made in house
Experimental: as §1, §2

[3] = biological target: T3, hCA II (Homo sapiens, UniProt P00918); test: stopped-flow CO2 hydrase assay, hCA II; conditions: recombinant enzyme, mean from 3 different assays, errors ± 5–10%
T3 construct: made in house
Experimental: as §1, §2

[4] = biological target: T4, hCA XII (Homo sapiens, UniProt O43570); test: stopped-flow CO2 hydrase assay, hCA XII; conditions: for Ki: recombinant enzyme, stopped-flow CO2 hydrase assay, mean from 3 different assays, errors ± 5–10%; for SR XII/II (Selectivity Ratio): selectivity for inhibiting hCA XII over hCA II (values equal Ki hCA II / Ki hCA XII)
T4 construct: made in house
Experimental: as §1, §2

T2 sequence (P00915 whole entry): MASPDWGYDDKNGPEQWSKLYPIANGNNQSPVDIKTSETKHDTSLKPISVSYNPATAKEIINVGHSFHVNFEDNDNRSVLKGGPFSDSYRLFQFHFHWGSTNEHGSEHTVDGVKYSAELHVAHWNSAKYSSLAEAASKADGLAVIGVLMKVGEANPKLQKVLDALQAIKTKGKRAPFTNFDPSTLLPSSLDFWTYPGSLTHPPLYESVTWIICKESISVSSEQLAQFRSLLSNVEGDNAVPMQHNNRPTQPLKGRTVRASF
T4 sequence (O43570 25-354): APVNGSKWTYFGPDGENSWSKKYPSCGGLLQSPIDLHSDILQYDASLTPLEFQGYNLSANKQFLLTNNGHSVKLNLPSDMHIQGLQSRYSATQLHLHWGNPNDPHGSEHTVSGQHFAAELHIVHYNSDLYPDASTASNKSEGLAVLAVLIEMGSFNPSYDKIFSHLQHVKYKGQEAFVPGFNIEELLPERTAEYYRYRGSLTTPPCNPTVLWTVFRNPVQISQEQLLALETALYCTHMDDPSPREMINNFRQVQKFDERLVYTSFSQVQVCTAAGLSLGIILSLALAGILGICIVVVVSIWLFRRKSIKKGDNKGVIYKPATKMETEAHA

Compound | Ki [1] [µM] | Ki [2] [µM] | Ki [3] [µM] | Ki [4] [µM] | SR IX/II (Selectivity Ratio) [1] | SR XII/II (Selectivity Ratio) [4]
NC(=O)c1ccc2nc(-c3ccc(O)c(C(=O)O)c3)[nH]c2c1 [Compound 19, 5-(6-Carbamoyl-1H-benzo[d]imidazol-2-yl)-2-hydroxybenzoic acid] | > 10 | > 10 | > 10 | > 10 | – | –
COC(=O)c1ccc(-c2nc3ccc(S(N)(=O)=O)cc3[nH]2)cc1 [Compound 10, Methyl 4-(6-sulfamoyl-1H-benzo[d]imidazol-2-yl)benzoate] | 0.0296 | 0.208 | 0.185 | 0.0722 | 6.3 | 2.6
NS(=O)(=O)c1ccc2nc(-c3ccccc3)[nH]c2c1 [Compound 9, 2-Phenyl-1H-benzo[d]imidazole-6-sulfonamide] | 0.0476 | 0.0928 | 0.104 | 0.0789 | 2.2 | 1.3
NS(=O)(=O)c1ccc2nc(-c3ccc(O)cc3)[nH]c2c1 [Compound 6, 2-(4-Hydroxyphenyl)-1H-benzo[d]imidazole-6-sulfonamide] | 0.0174 | 0.238 | 0.101 | 0.0441 | 5.8 | 2.3
NS(=O)(=O)c1ccc2nc(CCc3ccc(O)cc3)[nH]c2c1 [Compound 8, 2-(4-Hydroxyphenethyl)-1H-benzo[d]imidazole-6-sulfonamide] | 0.0144 | 0.214 | 0.0478 | 0.0098 | 3.3 | 4.9
NS(=O)(=O)c1ccc2nc(CCc3ccc(O)c(C(=O)O)c3)[nH]c2c1 [Compound 18, 2-Hydroxy-5-(2-(6-sulfamoyl-1H-benzo[d]imidazol-2-yl)ethyl)benzoic acid] | 0.0076 | 0.441 | 0.0248 | 0.0042 | 3.3 | 5.9
NS(=O)(=O)c1ccc2nc(-c3ccc(O)c(O)c3)[nH]c2c1 [Compound 12, 2-(3,4-Dihydroxyphenyl)-1H-benzo[d]imidazole-6-sulfonamide] | 0.0416 | 0.169 | 0.079 | 0.0085 | 1.9 | –
NS(=O)(=O)c1ccc2nc(-c3ccc(C(=O)O)cc3)[nH]c2c1 [Compound 11, 4-(6-Sulfamoyl-1H-benzo[d]imidazol-2-yl)benzoic acid] | 0.0643 | 0.0976 | 0.133 | 0.057 | 2.1 | 2.3
NS(=O)(=O)c1ccc2nc(Cc3ccc(O)cc3)[nH]c2c1 [Compound 7, 2-(4-Hydroxybenzyl)-1H-benzo[d]imidazole-6-sulfonamide] | 0.0739 | 0.442 | 0.0919 | 0.0638 | 1.2 | 1.4

Next, values leading:

Ki [1] [µM] | Ki [2] [µM] | Ki [3] [µM] | Ki [4] [µM] | SR IX/II (Selectivity Ratio) [1] | SR XII/II (Selectivity Ratio) [4] | Compound
0.665 | > 10 | 7.58 | 0.464 | – | – | CCNS(=O)(=O)c1ccc2nc(-c3ccc(O)c(C(=O)O)c3)[nH]c2c1 [Compound 16, 5-(6-(N-ethylsulfamoyl)-1H-benzo[d]imidazol-2-yl)-2-hydroxybenzoic acid]
0.0022 | 0.126 | 0.0508 | 0.0223 | 23.1 | 2.3 | COC(=O)c1cc(-c2nc3ccc(S(N)(=O)=O)cc3[nH]2)ccc1O [Compound 13, Methyl 2-hydroxy-5-(6-sulfamoyl-1H-benzo[d]imidazol-2-yl)benzoate]
0.391 | > 10 | 8.92 | 0.813 | – | – | CCNS(=O)(=O)c1ccc2nc(-c3ccc(O)c(C(=O)OC)c3)[nH]c2c1 [Compound 15, Methyl 5-(6-(N-ethylsulfamoyl)-1H-benzo[d]imidazol-2-yl)-2-hydroxybenzoate]
0.0059 | 0.427 | 0.0527 | 0.0079 | 8.9 | 6.7 | COC(=O)c1cc(CCc2nc3ccc(S(N)(=O)=O)cc3[nH]2)ccc1O [Compound 17, Methyl 2-hydroxy-5-(2-(6-sulfamoyl-1H-benzo[d]imidazol-2-yl)ethyl)benzoate]
0.0342 | 0.0956 | 0.0686 | 0.0038 | 2.0 | 18.1 | NS(=O)(=O)c1ccc2nc(-c3ccc(O)c(C(=O)O)c3)[nH]c2c1 [Compound 14, 2-hydroxy-5-(6-sulfamoyl-1H-benzo[d]imidazol-2-yl)benzoic acid]
